According to US6831079B1, “Vasopressin agonist formulation and process” (American Cyanamid Company, priority 1999, dated 2004):
Where “and” joins values, the source holds several entries; their conditions need not be identical. Identical values can stand only once.

How the values were obtained:
Vasopressin V2 = Vasopressin V2 (Rattus norvegicus, UniProt Q00788); experiment: Vasopressin V2 agonist effects in normal conscious water-loaded rats; format: in vivo; set-up: from tissue; host or cells: whole living Sprague-Dawley rat; the receptor is the animal's own (renal, by own knowledge); details: Sprague-Dawley (CD) rats, 10 mg/kg oral; for Osmolality (% Increase): change in osmolality as percent of control; for Urine Volume (% decrease): vs. control, urine collected four hours
Text: Vasopressin V2 Agonist Effects of Test Compounds in Normal Conscious Water-loaded Rats
Male or female normotensive Sprague-Dawley rats (Charles River Laboratories, Inc., Kingston, N.Y.) of 350-500 g body weight were supplied with standard rodent diet (Purina Rodent Lab. Chow 5001) and water ad libitum. On the day of test, rats were placed individually into metabolic cages equipped with devices to separate the feces from the urine and containers for collection of urine. […] The vehicle used was 20% dimethylsulfoxide (DMSO) in 2.5% preboiled corn starch. Thirty minutes after dosing the test compound, rats were gavaged with water at 30 ml/kg into the stomach using a feeding needle. During the test, rats were not provided with water or food. Urine was collected for four hours after dosing of the test compound. At the end of four hours, urine volume was measured. Urinary osmolality was determined using a Fiske One-Ten Osmometer (Fiske Associates, Norwood, Mass., 02062) or an Advanced CRYOMATIC Osmometer, Model 3C.2 (Advanced Instruments, Norwood, Mass.). Determinations of Na^+, K^+ and Cl^− ion were carried out using ion specific electrodes in a Beckman SYNCHRON EL-ISE Electrolyte System analyzer. The urinary osmolality should increase proportionally. In the screening test, two rats were used for each compound. If the difference in the urine volume of the two rats was greater than 50%, a third rat was used.

Chain of Vasopressin V2 (Q00788 whole entry): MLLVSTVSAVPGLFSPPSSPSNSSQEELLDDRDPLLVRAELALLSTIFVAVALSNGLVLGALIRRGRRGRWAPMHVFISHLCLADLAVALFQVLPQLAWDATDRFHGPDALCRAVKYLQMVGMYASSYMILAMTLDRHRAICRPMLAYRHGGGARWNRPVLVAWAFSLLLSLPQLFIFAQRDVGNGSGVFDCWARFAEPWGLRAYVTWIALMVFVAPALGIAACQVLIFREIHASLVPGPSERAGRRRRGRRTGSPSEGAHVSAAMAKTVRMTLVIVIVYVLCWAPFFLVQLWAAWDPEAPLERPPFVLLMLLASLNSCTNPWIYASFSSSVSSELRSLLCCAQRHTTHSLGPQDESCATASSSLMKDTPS

Compound | melting point | Osmolality (% Increase) (Vasopressin V2) [%] | Urine Volume (% decrease) (Vasopressin V2) [%]
Cc1ccn(-c2ccc(C(=O)N3Cc4cccn4Cc4ccccc43)c(Cl)c2)n1 (single isomer, unassigned) [Example 9A] | 137 to 138 °C and 141 to 143 °C | 325 | 70
Cc1ccn(-c2ccc(C(=O)N3Cc4ccc(C)n4Cc4ccccc43)c(Cl)c2)n1 [Example 18, [2-Chloro-4-(3-methylpyrazol-1-yl)-phenyl]-(3-methyl-5H,11H-pyrrolo[2,1-c][1,4]benzodiazepin-10-yl)-methanone] | 178 to 180 °C | 214 | 52
CCCC(=O)n1ccc(-c2ccc(C(=O)N3Cc4cccn4Cc4ccccc43)cc2)n1 [Example 33, 1-{3-[4-(5H,11H-Pyrrolo[2,1-c][1,4]benzodiazepine-10-carbonyl)-phenyl]-pyrazol-1-yl}-butan-1-one] | 105 to 110 °C | 362 | 68
O=C(c1ccc(-c2ccn(C(=O)c3ccc(F)cc3Cl)n2)cc1)N1Cc2cccn2Cc2ccccc21 [Example 37, {4-[1-(2-Chloro-4-fluoro-benzoyl)-1H-pyrazol-3-yl]-phenyl}-(5H,11H-pyrrolo[2,1-c][1,4]benzodiazepin-10-yl}methanone] | 150 to 157 °C | 370 | 71
O=C(c1ccc(-c2ncn[nH]2)cc1)N1Cc2cccn2Cc2ccccc21 [Example 48, (5H,11H-Pyrrolo[2,1-c][1,4]benzodiazepin-10-yl)-[4-(2H-[1,2,4]triazol-3-yl)-phenyl]-methanone] | 225 to 227 °C |  | 
Cc1n[nH]c(-c2ccc(C(=O)N3Cc4cccn4Cc4ccccc43)cc2)n1 [Example 50, [4-(5-Methyl-2H-[1,2,4]triazol-3-yl)-phenyl]-(5H,11H-pyrrolo[2,1-c][1,4]-benzodiazepin-10-yl)-methanone] |  | 223 | 53
Cc1nc(-c2ccc(C(=O)N3Cc4cccn4Cc4ccccc43)cc2)n(C)n1 [Example 51, [4-(2,5-Dimethyl-2H-[1,2,4]triazol-3-yl)-phenyl]-(5H,11H-pyrrolo[2,1-c]-[1,4]benzodiazepin-10-yl)-methanone] | 193 to 195 °C |  | 72
Cc1noc(-c2ccc(C(=O)N3Cc4cccn4Cc4ccccc43)cc2)n1 [Example 52, [4-(3-Methyl[1,2,4]oxadiazol-5-yl)-phenyl]-(5H,11H-pyrrolo-[2,1-c][1,4]-benzodiazepin-10-yl)-methanone] | 177 to 179 °C | 261 | 66
O=C(c1ccc(-n2cccn2)cc1)N1Cc2cccn2Cc2ccccc21 [Example 58, [4-(Pyrazol-1-yl)-phenyl]-(5H,11H-pyrrolo[2,1-c][1,4]benzodiazepin-10-yl)-methanone] |  | 324 | 49
Cc1ccn(-c2ccc(C(=O)N3Cc4cccn4Cc4ccccc43)cc2)n1 [Example 59, [4-(3-Methyl-pyrazol-1-yl)-phenyl]-(5H,11H-pyrrolo[2,1-c][1,4]-benzodiazepin-10-yl)-methanone] |  | 607 | 80
Cc1cc(C)n(-c2ccc(C(=O)N3Cc4cccn4Cc4ccccc43)cc2)n1 [Example 61, [4-(3,5-Dimethyl-pyrazol-1-yl)-phenyl]-(5H,11H-pyrrolo[2,1-c][1,4]-benzodiazepin-10-yl)-methanone] |  | 245 | 59
O=C(c1ccc(-n2ccnc2)cc1)N1Cc2cccn2Cc2ccccc21 [Example 63, [4-(Imidazol-1-yl)-phenyl]-(5H,11H-pyrrolo[2,1-c][1,4]benzodiazepin-10-yl)-methanone] | 171 to 172 °C |  | 
N#Cc1ccc(C(=O)N2Cc3cccn3Cc3ccccc32)c(Cl)c1 [Example 77, 3-Chloro-4-(5H,11H-pyrrolo[2,1-c][1,4]benzodiazepine-10-carbonyl)-benzonitrile] |  | 90 | 13
Cc1n[nH]c(-c2ccc(C(=O)N3Cc4cccn4Cc4ccccc43)c(Cl)c2)n1 [Example 81, [2-Choro-4-(5-methyl-2H-[1,2,4]triazol-3-yl)phenyl]-(5H,11H-pyrrolo[2,1-c][1,4]benzodiazepine-10-carbonyl)-methanone] |  | 490 | 82
Cc1nc(-c2ccc(C(=O)N3Cc4cccn4Cc4ccccc43)c(Cl)c2)n(C)n1 [Example 85, 4-[(2,5-Dimethyl-2H-[1,2,4]triazol-3-yl)-2-chloro-phenyl]-(5H,11H-pyrrolo[2,1-c][1,4]benzodiazepin-10-carbonyl)-methanone] |  | 436 | 76
Cc1ccn(-c2ccc(C(=O)N3Cc4cccn4Cc4ccccc43)c(Br)c2)n1 [Example 90] |  | 413 | 61
O=C(c1ccc(F)cc1F)N1Cc2cccn2Cc2ccccc21 [Example 91, (2,4-Difluoro-phenyl)-(5H,11H-pyrrolo[2,1-c][1,4]benzodiazepin-10-yl)-methanone] |  | 69 | 22
Cc1ccn(-c2ccc(C(=O)N3Cc4ccnn4Cc4ccccc43)c(C(F)(F)F)c2)n1 [Example 95, [4-(3-Methylpyrazol-1-yl)-2-trifluoromethylphenyl]-(5H,11H-pyrazolo[5,1-c]-[1,4]benzodiazepin-10-yl)-methanone] |  | 300 | 68
Cc1ncn(-c2ccc(C(=O)N3Cc4cccn4Cc4ccccc43)c(Cl)c2)n1 [Example 102, [2-Chloro-4-(3-methyl-1,2,4-triazol-1-yl)-phenyl](5H,11H-pyrrolo[2,1-c]-[1,4]benzodiazepin-10-yl)-methanone] | 191 to 193 °C |  | 
Cc1ncn(-c2ccc(C(=O)N3Cc4cccn4Cc4ccccc43)c(C(F)(F)F)c2)n1 [Example 103, [4-(3-Methyl-1,2,4-triazol-1yl)-2-trifluoromethyl-phenyl](5H,11H-pyrrolo[2,1-c][1,4]benzodiazepin-10-yl)-methanone] | 148 to 150 °C |  | 
COc1cc(-n2ccc(C)n2)ccc1C(=O)N1Cc2cccn2Cc2ccccc21 [Example 107, [2-Methoxy-4-(3-methyl-pyrazol-1-yl)-phenyl](5H,11H-pyrrolo[2,1-c][1,4]-benzodiazepin-10-yl) Methanone] |  | 125 | 31
COc1cc(-n2ccc(C)n2)ccc1C(=O)N1Cc2ccc(CN(C)C)n2Cc2ccccc21 [Example 108, (3-Dimethylaminomethyl-5H,11H-pyrrolo[2,1-c][1,4]benzodiazepin-10-yl)[2-methoxy-4-(3-methyl-pyrazol-1-yl)-phenyl]-methanone] |  | 145 | 30
Cc1ccn(-c2ccc(C(=O)N3Cc4cccn4Cc4ccccc43)c(O)c2)n1 [Example 109] |  | 95 | 21
Cn1cc(-c2ccc(C(=O)N3Cc4cccn4Cc4ccccc43)c(Cl)c2)cn1 [Example 115, [2-Chloro-4-(1-methyl-1H-pyrazol-4-yl)phenyl) (5H,11H-pyrrolo[2,1-c][1,4]-benzodiazepin-10-yl)-methanone] |  | 229 | 66
Cc1ccn(-c2ccc(C(=O)N3Cc4ccnn4Cc4ccccc43)c(Cl)c2)n1 [Example 116, [2-Chloro-4-(3-methyl-pyrazol-1-yl)-phenyl]-(4H,10H-pyrazolo[5,1-c][1,4]-benzodiazepin-5-yl)-methanone] |  | 256 | 66
Cc1ccn(-c2ccc(C(=O)N3Cc4nnnn4Cc4ccccc43)c(Cl)c2)n1 [Example 117] |  | 311 | 68
Cn1ccc(-c2ccc(C(=O)N3Cc4ccnn4Cc4ccccc43)cc2)n1 [Example 120A, [4-(1-Methyl-1H-pyrazol-3-yl)phenyl](4H,10H-pyrazolo[5,1c][1,4]-benzodiazepin-5-yl)methanone] |  | 269 | 66
Cn1nccc1-c1ccc(C(=O)N2Cc3ccnn3Cc3ccccc32)cc1 [Example 120B, [4-(2-Methyl-1H-pyrazol-3-yl)phenyl](4H,1OH-pyrazolo[5,1c][1,4]-benzodiazepin-5-yl)methanone] |  | 272 | 67
[2-Chloro-4-(2-methyl-2H-[1,2,4]triazol-3-yl)-phenyl]-(5H,11H-pyrrolo [2,1-c][1,4]benzodiazepin-10-carbonyl)-methanone [Example 84] |  | 291 | 56
[2-Chloro-4-(3-methyl-4-ethynyl-phenyl) (5H,11H-pyrrolo[2,1-c][1,4]-benzodiazepin-10-yl)-methanone [Example 123] |  | 663 | 88
